# Measurements taken from article PMC12670426 (Journal of Medicinal Chemistry, 2025).
# Like-named read-outs stand apart in the source and are kept apart here.
# Assays:
# [1] = target: T1, human galectin-1 (Gal-1, full length) (Homo sapiens, UniProt P09382); test: Competitive fluorescence polarization assay, Gal-1; type: binding
# T1 construct: Gal-1 is a prototype galectin consisting of a single CRD and was used in full length; 6xHis tag with TEV protease site (N, cleaved yes); made in house; host or cells: BL21 Escherichia coli (pET-15b)
# T1 sequence (P09382 2-135): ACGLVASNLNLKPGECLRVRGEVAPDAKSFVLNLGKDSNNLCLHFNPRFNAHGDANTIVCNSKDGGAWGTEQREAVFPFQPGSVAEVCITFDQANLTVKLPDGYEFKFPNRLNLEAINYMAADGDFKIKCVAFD
# Summary of the method: (§1)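 Competitive fluorescence polarization (anisotropy) with a fluorescent probe; full-length Gal-1 and C-terminal CRD construct of Gal-3. Read after 30–60 min incubation at 25 °C. Kd fitted with Wang's exact cubic competitive model, rmin/rmax fixed from direct binding.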
# [2] = target: T2, human galectin-3C (Gal-3C, C-terminal CRD of galectin-3) (Homo sapiens, UniProt P17931); test: Competitive fluorescence polarization assay, Gal-3C; type: binding
# T2 construct: only the C-terminal domain was used (Gal-3C); 6xHis tag with TEV protease site (N, cleaved yes); made in house; host or cells: BL21 Escherichia coli (pET-15b)
# T2 sequence (P17931 118-248 limits assumed): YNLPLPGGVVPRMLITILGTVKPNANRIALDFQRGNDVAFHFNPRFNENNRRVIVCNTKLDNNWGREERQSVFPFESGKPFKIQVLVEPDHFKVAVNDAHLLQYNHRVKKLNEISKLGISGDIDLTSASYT
# Summary of the method: as §1
# [3] = Plasma stability assay, human plasma; type: in vitro ADME; details: pooled plasma, 37 °C
# Experimental: (§2) Test compounds (10 μM) were incubated with mouse, rat, or human pooled plasma from 50 donors (Biowest) at 37 °C for 20, 60, and 120 min. Reactions were terminated by adding four volumes of ice-cold methanol, followed by vigorous mixing. Samples were kept at −20 °C for 30 min and then stored at 4 °C overnight. The next day, samples were centrifuged, and supernatants were diluted with four volumes of 30% methanol in water. Zero time points were prepared by adding ice-cold methanol to the compound prior to the addition of plasma. Samples were then analyzed on an Echo MS system (SCIEX) using multiple reaction monitoring (MRM). The only exception was compound 3af, which was analyzed by LC–MS/MS (SCIEX 6500 triple quadrupole) due to its weak ionization in Echo-MS.
# [4] = Plasma stability assay, mouse plasma; type: in vitro ADME; details: 37 °C
# Experimental: as §2
# [5] = Plasma stability assay, rat plasma; type: in vitro ADME; details: 37 °C
# Experimental: as §2
# [6] = Microsomal stability assay, human liver microsomes; type: in vitro ADME; details: pooled liver microsomes, pH 7.4, human liver microsomes 0.5 mg/mL, NADPH
# Experimental: (§3) Microsomal stability was determined using 0.5 mg/mL of pooled human, mouse, or rat liver microsomes (Thermo Fisher Scientific) in 90 mM TRIS-Cl buffer (pH 7.4) containing 2 mM NADPH and 2 mM MgCl2. Test compounds (10 μM) were added, and the resulting mixture was incubated at 37 °C for 10, 60, 120, and 180 min. The reactions were terminated by the addition of four volumes of ice-cold methanol, followed by vigorous mixing. The samples were left at −20 °C for 30 min and then stored at 4 °C overnight. The next day, samples were centrifuged, and supernatants were diluted with four volumes of 30% methanol in water. Zero time points were prepared by adding ice-cold methanol to the mixture of compounds and cofactors prior to the addition of microsomes. The samples were then analyzed using the Echo-MS system (SCIEX) with MRM transition monitoring, except for compound 3af, which was analyzed by LC–MS/MS as described in the plasma stability assay.
# [7] = Microsomal stability assay, mouse liver microsomes; type: in vitro ADME; details: pooled liver microsomes, pH 7.4, mouse liver microsomes 0.5 mg/mL, NADPH
# Experimental: as §3
# [8] = Microsomal stability assay, rat liver microsomes; type: in vitro ADME; details: pooled liver microsomes, pH 7.4, rat liver microsomes 0.5 mg/mL, NADPH
# Experimental: as §3
# [9] = Plasma protein binding assay (rapid equilibrium dialysis), human plasma; type: in vitro ADME; details: fraction bound, read-out: plasma protein binding Fb human (converted)
# Experimental: (§4) Test compound (10 μM) was incubated at 37 °C for 4 h with mouse, rat, or human plasma (Biowest) in the donor well of a rapid equilibrium dialysis plate (Thermo Fisher Scientific). PBS was placed in the acceptor well. To stop the assay, samples were collected from both wells, and an equal volume of plasma was added to the PBS sample, and vice versa. Proteins were then precipitated by adding three volumes of ice-cold methanol. Samples were mixed gently, kept at −20 °C for 30 min, and then stored at 4 °C overnight. The next day, the samples were centrifuged, and the supernatants were diluted with four volumes of 30% methanol in water. The samples were then analyzed using the Echo-MS system (SCIEX) with MRM transition monitoring, except for compound 3af, which was analyzed by LC–MS/MS as described in the plasma stability assay.
# [10] = Plasma protein binding assay (rapid equilibrium dialysis), mouse plasma; type: in vitro ADME; details: fraction bound, read-out: plasma protein binding Fb mouse (converted)
# Experimental: as §4
# [11] = Plasma protein binding assay (rapid equilibrium dialysis), rat plasma; type: in vitro ADME; details: fraction bound, read-out: plasma protein binding Fb rat (converted)
# Experimental: as §4
# [12] = Plasma protein binding, summary across species; type: in vitro ADME; details: summary across human, mouse and rat plasma
# Experimental: as §4
# [13] = Kinetic solubility assay in PBS; type: physicochemical; details: aqueous buffer, kinetic from dmso stock; PBS at pH 7.4, 100 μM final, 2 h room temperature
# Experimental: The solutions were incubated at room temperature for 2 h and filtered by centrifugation. Filtrates were diluted 100-fold with 50% acetonitrile in water and then analyzed on the Echo-MS system (SCIEX) using MRM transition monitoring, except for compound 3af, which was analyzed by LC–MS/MS as described in the plasma stability assay. Compound concentrations were quantified against calibration curves prepared in the identical matrix as the samples.
# [14] = target: galectin CRD; parameters: method as in not given; details: endogenous ligand binding the galectin CRD; literature value, ref not given; cited from earlier work
# [15] = target: Gal-1; test: Direct binding fluorescence polarization of the fluorescent probe, Gal-1; parameters: species or system human; details: [probe] 100 nM, mean ± SD
# Experimental: (§5) Fluorescence polarization measurements were performed at 25 °C using a Tecan Spark multiplate reader (Tecan, Switzerland) with excitation at 485 ± 20 nm and emission at 535 ± 20 nm in a 384-well black polystyrene microplate (Corning 4514, USA). Dissociation constants of the probe (K d ^*) were determined by fitting the binding data with a quadratic model for direct binding using the BindCurve package. Additional details on the model, probe concentrations, and fitting parameters are provided in the Supporting Information.
# (§6) Fluorescence polarization
# (§7) Direct binding was modeled by a quadratic model, which is written as […]
# (§8) where r corresponds to the measured anisotropy, rmin corresponds to the anisotropy of the free probe (labeled ligand), and rmax corresponds to maximal anisotropy, which is achieved when all molecules of the probe are bound to the receptor. Kd∗ is the dissociation constant of the probe and [R] is the concentration of free receptor. [R] is determined by a quadratic equation […]
# (§9) where [L∗]T is the total concentration of the probe and [R]T is the total concentration of the receptor. Using quadratic formula, the positive root is calculated as […]
# (§10) Table S1. Calculated Kd∗ values, total concentrations of the fluorescent probe, and model asymptotes from direct binding experiments. […]
# (§11) a K∗ values are expressed as mean ± SD from two independent experiments, each performed […]
# [16] = target: T3, Gal-3C (Homo sapiens, UniProt P17931); test: Direct binding fluorescence polarization of the fluorescent probe, Gal-3C; details: [probe] 5 nM, mean ± SD
# T3 construct: only the C-terminal domain was used (Gal-3C); 6xHis tag with TEV protease site (N, cleaved yes); made in house; host or cells: BL21 Escherichia coli (pET-15b)
# T3 sequence (P17931 118-248 limits assumed): as above
# Experimental: as §5, §6, §7, §8, §9, §10, §11
# [17] = CSV supplement, unrounded mean, read-out: Gal1_IC50_mean_uM
# [18] = CSV supplement, unrounded mean, read-out: Gal1_Kd_mean_uM
# [19] = competitive fluorescence polarization, mean ± SD, read-out: Kd Gal-1
# [20] = four-parameter logistic model, mean ± SD, read-out: IC50 Gal-1
# [21] = CSV supplement, unrounded mean, read-out: Gal3C_IC50_mean_uM
# [22] = CSV supplement, unrounded mean, read-out: Gal3C_Kd_mean_uM
# [23] = competitive fluorescence polarization, mean ± SD, read-out: Kd Gal-3C
# [24] = four-parameter logistic model, mean ± SD, read-out: IC50 Gal-3C
SMILES,"IC50 [1, 17] [µM]","Kd [1, 18] [µM]","Kd [1, 19] [µM]","IC50 [1, 20] [µM]","IC50 [2, 21] [µM]","Kd [2, 22] [µM]","Kd [2, 23] [µM]","IC50 [2, 24] [µM]","remaining at 2 h, 10 μM [3] [%]","remaining at 2 h, 10 μM [4] [%]","remaining at 2 h, 10 μM [5] [%]",microsomal CLint at 10 μM [6] [µL/min/mg],microsomal CLint at 10 μM [7] [µL/min/mg],microsomal CLint at 10 μM [8] [µL/min/mg],"fraction unbound at 4 h, 10 μM [9]","fraction unbound at 4 h, 10 μM [10]","fraction unbound at 4 h, 10 μM [11]","fraction unbound at 4 h, 10 μM [12]",solubility kinetic at 2 h [13] [µM],also measured
"CC(=O)N(c1cc(O)cc(C(=O)O)c1)[C@@H]1O[C@H](CO)[C@@H](O[C@@H]2O[C@H](CO)[C@H](O)[C@H](O)[C@H]2O)[C@H](O)[C@H]1O [Compound 3ad, N-[4-O-(β-D-Galactopyranosyl)-β-D-glucopyranosyl]-N-(3-carboxy-5-hydroxyphenyl)acetamide]",1240,737,740 ± 20,1200 ± 300,32.2,11.4,11 ± 2,32 ± 2,99 ± 8,110 ± 2,140 ± 7,< 2,< 2,< 2,0.94,0.93,0.94,> 0.9,> 100,
"CC(=O)N(c1cc(C(=O)O)cc2[nH]ccc12)[C@@H]1O[C@H](CO)[C@@H](O[C@@H]2O[C@H](CO)[C@H](O)[C@H](O)[C@H]2O)[C@H](O)[C@H]1O [Compound 3af, N-[4-O-(β-D-Galactopyranosyl)-β-D-glucopyranosyl]-N-(6-carboxy-1H-indol-4-yl)acetamide]",1530,846,850 ± 200,1500 ± 300,11.4,4.15,4.1 ± 0.4,11 ± 0.9,100,76,94,3,< 2,< 2,> 0.95,> 0.95,0.73,> 0.9,> 100,enhancement of affinity for Gal-3C compared to 3r ([2]; compared to 3r): 10 fold; improvement in affinity toward Gal-3C compared to 3a ([2]; compared to unsubstituted phenyl derivative 3a): 27 fold; improvement in affinity toward Gal-3C compared to β-LacOMe ([2]; compared to β-LacOMe): 56 fold; selectivity for Gal-3C over Gal-1 ([2]; ratio Kd (Gal-1)/Kd (Gal-3C)): more than 200 fold
"CC(=O)c1c[nH]c2cc(C(=O)O)cc(N(C(C)=O)[C@@H]3O[C@H](CO)[C@@H](S[C@@H]4O[C@H](CO)[C@H](O)[C@H](n5cc(-c6cccc(F)c6)nn5)[C@H]4O)[C@H](O)[C@H]3O)c12 [Compound 10, N-[4-S-(3-Deoxy-3-(4-(3-fluorophenyl)-1H-1,2,3-triazol-1-yl)-β-D-galactopyranosyl)-4-thio-β-D-glucopyranosyl]-N-(3-acetyl-6-carboxy-1H-indol-4-yl)acetamide]",7.16,3.62,3.6 ± 0.4,7.2 ± 0.6,0.154,0.0315,0.031 ± 0.004,0.15 ± 0.009,92 ± 6,89 ± 5,110 ± 5,< 2,< 2,< 2,0.66,0.78,0.75,0.1 to 0.78,> 100,
"CC(=O)N[C@H]1C(O)O[C@H](CO)[C@@H](O[C@@H]2O[C@H](CO)[C@H](O)[C@H](O)[C@H]2O)[C@@H]1O (stereo partly shown) [LacNAc, N-acetyllactosamine]",,,,,,,,,,,,,,,,,,,,Kd [14]: ~100 µM
"O=C(NCc1cn([C@H]2[C@@H](O)[C@@H](CO)O[C@@H](S[C@@H]3O[C@H](CO)[C@H](O)[C@H](n4cc(-c5cccc(F)c5)nn4)[C@H]3O)[C@@H]2O)nn1)c1ccc2c(c1)C(=O)OC21c2ccc(O)cc2Oc2cc(O)ccc21 [fluorescent probe, 3-deoxy-3-[4-(fluorescein-5-yl-carbonylaminomethyl)-1H-1,2,3-triazol-1-yl]-β-D-galactopyranosyl-3-deoxy-3-[4-(3-fluorophenyl)-1H-1,2,3-triazol-1-yl]-1-thio-β-D-galactopyranoside]",,,,,,,,,,,,,,,,,,,,Kd [15]: 0.74 ± 0.009 µM; Kd [16]: 0.022 ± 0.002 µM
